Literature values in patent US20220127231A1, “PROCESS FOR THE PREPARTION OF AMIFAMPRIDINE PHOSPHATE” (SHILPA MEDICARE LTD, priority 2020, published 2022).

Tests used:
[1] = 1% solution in water at 25° C.

pH of 1% solution in water [1]: 4.6±0.2
solubility in dimethyl sulfoxide (dimethyl sulfoxide): slightly soluble
solubility in dimethylformamide (dimethylformamide): very slightly soluble
solubility in ethanol (ethanol): very slightly soluble
solubility in glacial acetic acid (glacial acetic acid): slightly soluble
solubility in methanol (methanol): slightly soluble
solubility in water (water): practically soluble
SMILES: Nc1ccncc1N [Amifampridine phosphate]
